Results published in patent publication US7407973B2, “Use of pirfenidone in therapeutic regimens” (Intermune, Inc., priority 2003, dated 2008).

Assays:
Assay in all cases: Enzymatic activity of human kinase in presence of pirfenidone
Type in all cases: biochemical
Details in all cases: percent of control activity in absence of pirfenidone, concentration not given
Rsk3 = Rsk3 (Homo sapiens, UniProt Q15349)
Method: (§1) Enzymatic activity of various human kinases was assayed in the presence and the absence of pirfenidone. Percent enzyme activity of various human enzymes in the presence of substrate and pirfenidone are shown in FIGS. 1-5, and in Table 2, below, where “percent enzyme activity” is the percent of the control activity (e.g., in the absence of pirfenidone): […]

SGK = SGK (Homo sapiens, UniProt O00141)
Method: as §1

PKCα = PKCα (Homo sapiens, UniProt P17252)
Method: as §1

CDK7/cyclinD3 = tested on: CDK7/cyclinD3
Method: as §1

SAPK2α = SAPK2α (Homo sapiens, UniProt Q16539)
Method: as §1

PKD2 = PKD2 (Homo sapiens, UniProt Q9BZL6)
Method: as §1

Lck = Lck (Homo sapiens, UniProt P06239)
Method: as §1

PKCμ = PKCμ (Homo sapiens, UniProt Q15139)
Method: as §1

p70S6K = p70S6K (Homo sapiens, UniProt P23443)
Method: as §1

PDGFRβ = PDGFRβ (Homo sapiens, UniProt P09619)
Method: as §1

PDK1 = PDK1 (Homo sapiens, UniProt O15530)
Method: as §1

PKBβ = PKBβ (Homo sapiens, UniProt P31751)
Method: as §1

ROCK-II = ROCK-II (Homo sapiens, UniProt O75116)
Method: as §1

JNK1 = JNK1 (Homo sapiens, UniProt P45983)
Method: as §1

MAPKAP-K2 = MAPKAP-K2 (Homo sapiens, UniProt P49137)
Method: as §1

Syk = Syk (Homo sapiens, UniProt P43405)
Method: as §1

Ax1 = Ax1 (Homo sapiens, UniProt P30530)
Method: as §1

MAPK1 (Homo sapiens) = tested on: MAPK1 (Homo sapiens)
Method: as §1

SAPK2β = SAPK2β (Homo sapiens, UniProt Q15759)
Method: as §1

CHK2 = CHK2 (Homo sapiens, UniProt O96017)
Method: as §1

SAPK4 = SAPK4 (Homo sapiens, UniProt O15264)
Method: as §1

MKK6 = MKK6 (Homo sapiens, UniProt P52564)
Method: as §1

IKKβ = IKKβ (Homo sapiens, UniProt O14920)
Method: as §1

Rsk2 = Rsk2 (Homo sapiens, UniProt P51812)
Method: as §1

PKCβII = PKCβII (Homo sapiens, UniProt P05771)
Method: as §1

PAK2 = PAK2 (Homo sapiens, UniProt Q13177)
Method: as §1

PKCδ = PKCδ (Homo sapiens, UniProt Q05655)
Method: as §1

Bmx = Bmx (Homo sapiens, UniProt P51813)
Method: as §1

PKBγ = PKBγ (Homo sapiens, UniProt Q9Y243)
Method: as §1

IR = IR (Homo sapiens, UniProt P06213)
Method: as §1

cSRC = cSRC (Homo sapiens, UniProt P12931)
Method: as §1

PRAK = PRAK (Homo sapiens, UniProt Q8IW41)
Method: as §1

SAPK3 = SAPK3 (Homo sapiens, UniProt P53778)
Method: as §1

JNK2 = JNK2 (Homo sapiens, UniProt P45984)
Method: as §1

CDK7/cyclinH/MAT1 = CDK7/cyclinH/MAT1 (Homo sapiens, UniProt P50613)
Method: as §1

PKBα = PKBα (Homo sapiens, UniProt P31749)
Method: as §1

CaMKIV = CaMKIV (Homo sapiens, UniProt Q16566)
Method: as §1

PRK2 = PRK2 (Homo sapiens, UniProt Q16513)
Method: as §1

Fyn = Fyn (Homo sapiens, UniProt P06241)
Method: as §1

Lyn = Lyn (Homo sapiens, UniProt P07948)
Method: as §1

PKCo = tested on: PKCo
Method: as §1

CSK = CSK (Homo sapiens, UniProt P41240)
Method: as §1

PKA = PKA (Homo sapiens, UniProt P17612)
Method: as §1

Sequence of IR (P06213 28-1382): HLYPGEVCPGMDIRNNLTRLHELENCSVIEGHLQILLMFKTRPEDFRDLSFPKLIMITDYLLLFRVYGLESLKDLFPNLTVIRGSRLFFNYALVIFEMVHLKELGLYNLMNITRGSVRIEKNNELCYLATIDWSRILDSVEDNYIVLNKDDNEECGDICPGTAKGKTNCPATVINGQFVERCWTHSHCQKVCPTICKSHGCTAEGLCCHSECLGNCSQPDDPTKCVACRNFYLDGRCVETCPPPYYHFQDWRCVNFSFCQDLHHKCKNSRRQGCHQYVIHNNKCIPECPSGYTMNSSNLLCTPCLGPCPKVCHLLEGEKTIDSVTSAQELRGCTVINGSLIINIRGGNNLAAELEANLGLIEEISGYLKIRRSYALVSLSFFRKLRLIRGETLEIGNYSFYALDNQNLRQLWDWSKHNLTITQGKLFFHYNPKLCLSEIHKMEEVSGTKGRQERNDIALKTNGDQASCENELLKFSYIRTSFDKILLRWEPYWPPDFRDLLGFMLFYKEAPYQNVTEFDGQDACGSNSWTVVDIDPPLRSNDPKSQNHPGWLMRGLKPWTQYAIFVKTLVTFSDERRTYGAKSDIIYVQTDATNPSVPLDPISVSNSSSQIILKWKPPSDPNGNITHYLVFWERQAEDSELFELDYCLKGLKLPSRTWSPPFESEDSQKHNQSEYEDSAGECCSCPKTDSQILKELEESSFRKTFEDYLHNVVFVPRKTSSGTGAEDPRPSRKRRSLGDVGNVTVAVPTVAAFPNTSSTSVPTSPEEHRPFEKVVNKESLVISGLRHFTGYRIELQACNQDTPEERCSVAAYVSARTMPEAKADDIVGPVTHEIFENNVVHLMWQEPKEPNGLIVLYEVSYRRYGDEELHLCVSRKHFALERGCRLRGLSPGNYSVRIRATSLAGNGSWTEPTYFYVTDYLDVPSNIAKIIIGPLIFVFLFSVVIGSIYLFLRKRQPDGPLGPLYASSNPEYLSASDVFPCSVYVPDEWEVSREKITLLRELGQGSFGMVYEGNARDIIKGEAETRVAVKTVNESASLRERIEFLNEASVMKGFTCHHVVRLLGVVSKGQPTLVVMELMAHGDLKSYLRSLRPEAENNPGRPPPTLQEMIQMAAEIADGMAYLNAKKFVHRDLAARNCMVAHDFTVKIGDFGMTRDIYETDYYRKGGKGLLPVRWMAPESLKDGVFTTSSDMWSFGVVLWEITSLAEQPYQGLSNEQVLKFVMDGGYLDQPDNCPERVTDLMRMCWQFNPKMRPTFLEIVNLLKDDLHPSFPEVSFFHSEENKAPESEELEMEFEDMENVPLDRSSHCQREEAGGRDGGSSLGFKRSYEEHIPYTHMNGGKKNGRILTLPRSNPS
Sequence of Bmx (P51813 whole entry): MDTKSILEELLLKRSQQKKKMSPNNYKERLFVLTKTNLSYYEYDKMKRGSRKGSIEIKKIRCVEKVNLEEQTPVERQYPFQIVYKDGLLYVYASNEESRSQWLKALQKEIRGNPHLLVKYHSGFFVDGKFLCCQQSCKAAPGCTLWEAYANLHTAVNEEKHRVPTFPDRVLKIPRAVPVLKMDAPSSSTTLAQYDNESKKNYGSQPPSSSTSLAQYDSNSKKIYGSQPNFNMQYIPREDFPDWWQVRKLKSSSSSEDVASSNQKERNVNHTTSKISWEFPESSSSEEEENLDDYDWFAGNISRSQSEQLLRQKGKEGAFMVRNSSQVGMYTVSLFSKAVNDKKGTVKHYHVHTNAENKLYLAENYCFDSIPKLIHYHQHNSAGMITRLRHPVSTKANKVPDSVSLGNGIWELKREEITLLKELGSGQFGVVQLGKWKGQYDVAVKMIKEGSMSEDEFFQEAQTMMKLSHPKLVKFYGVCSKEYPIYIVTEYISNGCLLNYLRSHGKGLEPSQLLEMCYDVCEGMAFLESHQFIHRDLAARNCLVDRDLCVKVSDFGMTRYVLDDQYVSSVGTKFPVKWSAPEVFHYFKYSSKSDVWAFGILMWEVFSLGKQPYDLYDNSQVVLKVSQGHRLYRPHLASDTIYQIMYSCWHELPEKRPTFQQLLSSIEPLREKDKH
Sequence of JNK2 (P45984 whole entry): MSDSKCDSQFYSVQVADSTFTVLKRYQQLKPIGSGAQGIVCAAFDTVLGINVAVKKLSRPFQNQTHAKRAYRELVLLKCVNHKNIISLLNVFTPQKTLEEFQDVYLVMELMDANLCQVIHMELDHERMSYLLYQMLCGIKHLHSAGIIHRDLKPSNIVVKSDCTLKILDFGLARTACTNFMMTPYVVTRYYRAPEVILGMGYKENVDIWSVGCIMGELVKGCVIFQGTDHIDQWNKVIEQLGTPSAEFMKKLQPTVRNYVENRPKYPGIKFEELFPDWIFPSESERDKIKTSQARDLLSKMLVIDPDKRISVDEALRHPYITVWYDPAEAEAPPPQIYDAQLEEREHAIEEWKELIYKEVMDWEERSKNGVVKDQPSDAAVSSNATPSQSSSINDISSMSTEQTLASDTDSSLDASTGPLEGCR
Sequence of PAK2 (Q13177 whole entry): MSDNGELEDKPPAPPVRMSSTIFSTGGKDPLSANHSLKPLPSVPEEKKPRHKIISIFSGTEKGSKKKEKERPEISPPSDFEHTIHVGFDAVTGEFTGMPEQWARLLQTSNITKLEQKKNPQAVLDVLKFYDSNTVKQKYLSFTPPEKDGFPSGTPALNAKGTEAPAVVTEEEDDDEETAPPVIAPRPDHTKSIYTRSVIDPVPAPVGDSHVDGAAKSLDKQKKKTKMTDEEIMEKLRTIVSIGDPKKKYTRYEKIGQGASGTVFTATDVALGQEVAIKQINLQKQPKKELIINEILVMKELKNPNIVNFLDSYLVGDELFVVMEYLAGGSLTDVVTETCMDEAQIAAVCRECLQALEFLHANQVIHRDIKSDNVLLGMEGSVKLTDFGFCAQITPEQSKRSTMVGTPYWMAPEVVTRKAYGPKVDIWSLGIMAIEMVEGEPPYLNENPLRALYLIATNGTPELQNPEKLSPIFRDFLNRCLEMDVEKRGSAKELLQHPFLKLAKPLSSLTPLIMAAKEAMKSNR
Sequence of CaMKIV (Q16566 whole entry): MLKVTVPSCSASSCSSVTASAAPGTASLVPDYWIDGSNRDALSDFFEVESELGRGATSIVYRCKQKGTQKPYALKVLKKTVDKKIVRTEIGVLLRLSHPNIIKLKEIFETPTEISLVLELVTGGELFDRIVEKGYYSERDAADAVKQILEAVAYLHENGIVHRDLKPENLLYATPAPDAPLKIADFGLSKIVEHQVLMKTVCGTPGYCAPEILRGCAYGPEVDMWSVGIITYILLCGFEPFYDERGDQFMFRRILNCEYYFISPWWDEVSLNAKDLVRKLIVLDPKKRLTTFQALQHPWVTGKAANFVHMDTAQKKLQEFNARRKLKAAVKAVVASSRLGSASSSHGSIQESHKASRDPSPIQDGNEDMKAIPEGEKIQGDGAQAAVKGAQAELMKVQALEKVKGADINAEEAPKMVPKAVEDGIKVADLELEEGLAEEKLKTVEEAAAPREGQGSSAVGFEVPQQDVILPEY
Sequence of SAPK2β (Q15759 whole entry): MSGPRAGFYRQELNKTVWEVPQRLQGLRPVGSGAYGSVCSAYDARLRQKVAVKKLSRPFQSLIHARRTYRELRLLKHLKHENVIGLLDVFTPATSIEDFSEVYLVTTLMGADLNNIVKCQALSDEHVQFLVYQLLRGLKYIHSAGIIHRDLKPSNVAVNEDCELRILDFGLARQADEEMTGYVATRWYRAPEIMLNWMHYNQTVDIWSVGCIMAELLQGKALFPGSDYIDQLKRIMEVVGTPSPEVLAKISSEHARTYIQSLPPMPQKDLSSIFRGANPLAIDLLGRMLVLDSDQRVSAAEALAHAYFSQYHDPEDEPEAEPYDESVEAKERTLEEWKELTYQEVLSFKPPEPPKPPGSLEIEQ
Sequence of MAPKAP-K2 (P49137 whole entry): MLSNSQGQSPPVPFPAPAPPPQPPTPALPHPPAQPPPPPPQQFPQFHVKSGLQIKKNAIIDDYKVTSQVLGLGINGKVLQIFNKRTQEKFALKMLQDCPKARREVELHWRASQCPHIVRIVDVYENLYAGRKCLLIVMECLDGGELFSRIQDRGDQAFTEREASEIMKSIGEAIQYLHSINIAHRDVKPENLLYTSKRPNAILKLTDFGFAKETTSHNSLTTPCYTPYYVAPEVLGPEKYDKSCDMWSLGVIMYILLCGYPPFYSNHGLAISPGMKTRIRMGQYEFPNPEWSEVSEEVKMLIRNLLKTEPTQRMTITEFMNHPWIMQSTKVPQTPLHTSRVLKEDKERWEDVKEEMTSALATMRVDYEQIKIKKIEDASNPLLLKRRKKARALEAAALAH
Sequence of SAPK4 (O15264 whole entry): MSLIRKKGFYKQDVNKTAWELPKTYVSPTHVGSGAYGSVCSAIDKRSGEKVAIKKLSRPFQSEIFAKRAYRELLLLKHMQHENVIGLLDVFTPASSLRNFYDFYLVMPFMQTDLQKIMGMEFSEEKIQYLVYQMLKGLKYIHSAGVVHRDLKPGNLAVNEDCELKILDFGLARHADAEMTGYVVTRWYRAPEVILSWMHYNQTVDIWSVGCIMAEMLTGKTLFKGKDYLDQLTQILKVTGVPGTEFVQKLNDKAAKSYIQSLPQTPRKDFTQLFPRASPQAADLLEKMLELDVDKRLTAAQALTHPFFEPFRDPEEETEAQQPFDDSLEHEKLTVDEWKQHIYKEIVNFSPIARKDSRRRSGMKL
Sequence of JNK1 (P45983 whole entry): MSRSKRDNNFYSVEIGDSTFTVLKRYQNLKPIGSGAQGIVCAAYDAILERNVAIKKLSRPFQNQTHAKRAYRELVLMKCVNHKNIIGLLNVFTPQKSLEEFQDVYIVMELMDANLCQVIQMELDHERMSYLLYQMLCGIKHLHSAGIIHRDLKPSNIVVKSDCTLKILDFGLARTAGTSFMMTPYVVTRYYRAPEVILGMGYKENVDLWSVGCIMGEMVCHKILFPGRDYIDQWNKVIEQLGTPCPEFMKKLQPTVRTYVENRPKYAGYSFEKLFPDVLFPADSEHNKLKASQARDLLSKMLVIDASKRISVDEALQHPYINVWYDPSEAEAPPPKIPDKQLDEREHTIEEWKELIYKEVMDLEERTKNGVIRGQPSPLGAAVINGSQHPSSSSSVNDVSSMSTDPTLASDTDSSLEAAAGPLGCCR

Cc1ccc(=O)n(-c2ccccc2)c1 [pirfenidone, 5-methyl-1-phenyl-2-(1H)-pyridone]
% Activity (Rsk3): 115% | % Activity (SGK): 106% | % Activity (PKCα): 94% | % Activity (CDK7/cyclinD3): 92% | % Activity (SAPK2α): 70% | % Activity (PKD2): 98% | % Activity (Lck): 104% | % Activity (PKCμ): 96% | % Activity (p70S6K): 96% | % Activity (PDGFRβ): 101% | % Activity (PDK1): 93% | % Activity (PKBβ): 88% | % Activity (ROCK-II): 90% | % Activity (JNK1): 105% | % Activity (MAPKAP-K2): 97% | % Activity (Syk): 78% | % Activity (Ax1): 93% | % Activity (MAPK1 (Homo sapiens)): 98% | % Activity (SAPK2β): 74% | % Activity (CHK2): 84% | % Activity (SAPK4): 98% | % Activity (MKK6): 84% | % Activity (IKKβ): 90% | % Activity (Rsk2): 99% | % Activity (PKCβII): 100% | % Activity (PAK2): 93% | % Activity (PKCδ): 102% | % Activity (Bmx): 86% | % Activity (PKBγ): 111% | % Activity (IR): 97% | % Activity (cSRC): 91% | % Activity (PRAK): 90% | % Activity (SAPK3): 46% | % Activity (JNK2): 97% | % Activity (CDK7/cyclinH/MAT1): 95% | % Activity (PKBα): 88% | % Activity (CaMKIV): 107% | % Activity (PRK2): 90% | % Activity (Fyn): 97% | % Activity (Lyn): 92% | % Activity (PKCo): 106% | % Activity (CSK): 64% | % Activity (PKA): 109%
